Target: T1, GVIA iPLA2 (Homo sapiens, UniProt O60733)
T1 sequence (O60733 1-806): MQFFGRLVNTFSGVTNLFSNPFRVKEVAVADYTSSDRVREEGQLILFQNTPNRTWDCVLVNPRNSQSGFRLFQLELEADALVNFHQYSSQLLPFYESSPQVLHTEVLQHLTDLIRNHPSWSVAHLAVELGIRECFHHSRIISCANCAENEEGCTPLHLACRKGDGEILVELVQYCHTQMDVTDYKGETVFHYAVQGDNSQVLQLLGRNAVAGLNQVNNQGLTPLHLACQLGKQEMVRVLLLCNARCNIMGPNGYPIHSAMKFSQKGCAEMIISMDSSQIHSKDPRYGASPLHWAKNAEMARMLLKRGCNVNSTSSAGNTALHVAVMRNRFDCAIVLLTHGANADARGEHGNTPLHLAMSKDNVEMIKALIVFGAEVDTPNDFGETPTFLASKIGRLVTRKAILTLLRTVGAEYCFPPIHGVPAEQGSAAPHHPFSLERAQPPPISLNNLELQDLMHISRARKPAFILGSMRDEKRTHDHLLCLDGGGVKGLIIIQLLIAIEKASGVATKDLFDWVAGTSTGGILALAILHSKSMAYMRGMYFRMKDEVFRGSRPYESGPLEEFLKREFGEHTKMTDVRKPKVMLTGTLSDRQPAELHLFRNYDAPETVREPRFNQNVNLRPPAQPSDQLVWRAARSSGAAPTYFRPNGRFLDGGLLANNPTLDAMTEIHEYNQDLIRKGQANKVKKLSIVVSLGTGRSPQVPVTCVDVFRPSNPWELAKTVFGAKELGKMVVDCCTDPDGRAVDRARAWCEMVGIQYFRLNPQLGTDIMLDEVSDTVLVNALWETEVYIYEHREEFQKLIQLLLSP
Test: mixed micelle modified Dole assay, GVIA iPLA2
Type: biochemical
Settings: read-out: IC50 (converted from XI(50)); 0.091 mole fraction corresponds to 50 μM

## CCCCCCCCSCC(=O)C(F)(F)F [Compound 3]
  IC50: 110 nM

— PMC5053890 (Bioorganic & medicinal chemistry, 2016)
